In PubChem BioAssay AID1845201 (Molecular Pharmacology Branch, DTP, NCI, 2023):
pIC50: −log10 of the molar value.

Tested on: COR L88 complex tumor spheroid viability
Assay: Anticancer human tumor COR L88 cell line growth inhibition;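 further: compound exposure lasted 7 days before viability readout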;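 on viability, T/C: percent of DMSO vehicle-treated spheroids = 100%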
Details: for pIC50: curve of first compound; for viability, T/C: stronger effect = lower value; active means viability on the fitted dose curve at most 10% of control; inactive means the rest
How it was run: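 Complex tumor spheroids combined malignant cells with endothelial cells and mesenchymal stem cells. DNA-damaging drugs and DNA repair inhibitors were tested alone and in combination, at half-log dilutions down from clinical Cmax (top 10 microM if Cmax unknown), 0.25% DMSO final.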

CNCc1ccc(-c2cc(-c3nc(-c4ccc(S(=O)(=O)C(C)C)cc4)cnc3N)on2)cc1 + COc1cc2c(cc1O)CCNC21CSC2c3c(OC(C)=O)c(C)c4c(c3C(COC1=O)N1C(O)C3Cc5cc(C)c(OC)c(O)c5C(C21)N3C)OCO4
6.40: pIC50 (second compound 30 pM)
6.61: pIC50 (second compound 0.0003 µM)
6.48: pIC50 (second compound 94.9 pM)
7.51: pIC50 (second compound 0.000949 µM)
> 8.02: pIC50 (second compound 0.003 µM)
active: viability, T/C (second compound 30 pM, first compound 3 µM) 7.83% | viability, T/C (second compound 0.000949 µM, first compound 0.949 µM) 7.96% | viability, T/C (second compound 0.000949 µM, first compound 3 µM) 3.08% | viability, T/C (second compound 0.003 µM, first compound 0.00949 µM) 0.92% | viability, T/C (second compound 0.003 µM, first compound 0.03 µM) 0.86% | viability, T/C (second compound 0.003 µM, first compound 0.0949 µM) 0.58% | viability, T/C (second compound 0.003 µM, first compound 0.3 µM) 0.62% | viability, T/C (second compound 0.003 µM, first compound 0.949 µM) 0.86% | viability, T/C (second compound 0.003 µM, first compound 3 µM) 0.52%
inactive: viability, T/C (second compound 30 pM, first compound 0.00949 µM) 108% | viability, T/C (second compound 30 pM, first compound 0.03 µM) 110% | viability, T/C (second compound 30 pM, first compound 0.0949 µM) 101% | viability, T/C (second compound 30 pM, first compound 0.3 µM) 57.5% | viability, T/C (second compound 30 pM, first compound 0.949 µM) 22.4% | viability, T/C (second compound 94.9 pM, first compound 0.00949 µM) 102% | viability, T/C (second compound 94.9 pM, first compound 0.03 µM) 106% | viability, T/C (second compound 94.9 pM, first compound 0.0949 µM) 101% | viability, T/C (second compound 94.9 pM, first compound 0.3 µM) 50.2% | viability, T/C (second compound 94.9 pM, first compound 0.949 µM) 22.5% | viability, T/C (second compound 94.9 pM, first compound 3 µM) 5.19% | viability, T/C (second compound 0.0003 µM, first compound 0.00949 µM) 82% | viability, T/C (second compound 0.0003 µM, first compound 0.03 µM) 91.2% | viability, T/C (second compound 0.0003 µM, first compound 0.0949 µM) 75.9% | viability, T/C (second compound 0.0003 µM, first compound 0.3 µM) 43.7% | viability, T/C (second compound 0.0003 µM, first compound 0.949 µM) 19.8% | viability, T/C (second compound 0.0003 µM, first compound 3 µM) 8.93% | viability, T/C (second compound 0.000949 µM, first compound 0.00949 µM) 62.4% | viability, T/C (second compound 0.000949 µM, first compound 0.03 µM) 49.4% | viability, T/C (second compound 0.000949 µM, first compound 0.0949 µM) 31.6% | viability, T/C (second compound 0.000949 µM, first compound 0.3 µM) 10.9%

Cc1cc(C)c(CNC(=O)c2cc(-c3ccc(CN4CCOCC4)cc3)cc3c2cnn3C2CCCC2)c(=O)[nH]1 + COc1cc2c(cc1O)CCNC21CSC2c3c(OC(C)=O)c(C)c4c(c3C(COC1=O)N1C(O)C3Cc5cc(C)c(OC)c(O)c5C(C21)N3C)OCO4
> 7.50: pIC50 (second compound 0.000949 µM) | pIC50 (second compound 0.003 µM)
inactive: viability, T/C (second compound 30 pM, first compound 0.0316 µM) 107% | viability, T/C (second compound 30 pM, first compound 0.1 µM) 93.7% | viability, T/C (second compound 30 pM, first compound 0.316 µM) 102% | viability, T/C (second compound 30 pM, first compound 1 µM) 85.3% | viability, T/C (second compound 30 pM, first compound 3.16 µM) 73.8% | viability, T/C (second compound 30 pM, first compound 10 µM) 60.2% | viability, T/C (second compound 94.9 pM, first compound 0.0316 µM) 98.4% | viability, T/C (second compound 94.9 pM, first compound 0.1 µM) 107% | viability, T/C (second compound 94.9 pM, first compound 0.316 µM) 104% | viability, T/C (second compound 94.9 pM, first compound 1 µM) 86.9% | viability, T/C (second compound 94.9 pM, first compound 3.16 µM) 79.2% | viability, T/C (second compound 94.9 pM, first compound 10 µM) 51.1% | viability, T/C (second compound 0.0003 µM, first compound 0.0316 µM) 63.8% | viability, T/C (second compound 0.0003 µM, first compound 0.1 µM) 67.3% | viability, T/C (second compound 0.0003 µM, first compound 0.316 µM) 62.6% | viability, T/C (second compound 0.0003 µM, first compound 1 µM) 50.4% | viability, T/C (second compound 0.0003 µM, first compound 3.16 µM) 48.7% | viability, T/C (second compound 0.0003 µM, first compound 10 µM) 42.2% | viability, T/C (second compound 0.000949 µM, first compound 0.0316 µM) 49.3% | viability, T/C (second compound 0.000949 µM, first compound 0.1 µM) 43.8% | viability, T/C (second compound 0.000949 µM, first compound 0.316 µM) 39.7% | viability, T/C (second compound 0.000949 µM, first compound 1 µM) 43.1% | viability, T/C (second compound 0.000949 µM, first compound 3.16 µM) 35.2% | viability, T/C (second compound 0.000949 µM, first compound 10 µM) 10.1%
< 5.00: pIC50 (second compound 30 pM) | pIC50 (second compound 94.9 pM)
active: viability, T/C (second compound 0.003 µM, first compound 0.0316 µM) 1.12% | viability, T/C (second compound 0.003 µM, first compound 0.1 µM) 1.08% | viability, T/C (second compound 0.003 µM, first compound 0.316 µM) 0.94% | viability, T/C (second compound 0.003 µM, first compound 1 µM) 1.18% | viability, T/C (second compound 0.003 µM, first compound 3.16 µM) 0.93% | viability, T/C (second compound 0.003 µM, first compound 10 µM) 0.96%
5.61: pIC50 (second compound 0.0003 µM)
